Legend:
[1] = Rat pharmacokinetic studies: plasma allopregnanolone after oral prodrug or ALLO, and after IV ALLO; type: in vivo, male Sprague-Dawley rats
Procedure: In order to assess the oral bioavailability of test compounds, pharmacokinetic studies were conducted using the following procedure. The day before drug administration, male Sprague-Dawley rats (240-320 g) were anesthetized and the carotid artery was cannulated. The rats were then allowed to regain consciousness and fasted overnight prior to the commencement of experiments with free access to water. The next morning, formulations containing parent compounds or prodrugs were administered via oral gavage or via the jugular vein cannula, and blood samples were collected from the carotid artery cannula from −5 min up to 24 h post dosing. During the blood sample collection period the rats had free access to water but remained fasted for a further 8 h following drug administration. In these allopregnanolone (ALLO) related studies, the blood samples were centrifuged at 4500×g for 5 min to separate plasma. Plasma samples were stored at −20° C. prior to assay by HPLC-MS-MS. The whole blood or plasma samples were assayed for free drug (i.e. non-glyceride associated drug) and were not hydrolized prior to assay (as was the case with the lymph samples).
FIG. 3 illustrates dose-normalized ALLO plasma concentrations following oral gavage of ALLO related formulations to conscious, carotid artery-cannulated male SD rats. The ALLO oral formulation for each rat contained 2 mg of parent ALLO (i.e., non-prodrug allopregnanolone) suspended in 2 ml of suspending vehicle (0.50 sodium carboxymethyl cellulose, 0.4% Tween 80 and 0.9% NaCl in water). Prodrug formulations for each rat contained 2 mg of the ALLO prodrug dispersed in 40 mg oleic acid, 25 mg Tween 80 and 2 ml PBS. Doses were normalized to a 2 mg/kg equivalent dose of ALLO. Data are shown as mean±SD n≥3 or mean±range when n=2. […] Doses are normalized to a 2 mg/kg equivalent ALLO dose and data are presented as mean±SD when n≥3 or mean±range when n=2.
Also shown (bottom) is the calculated area under the curve (AUC) over 0-24 h for each of the test compounds as a fraction of the IV-administered allpregnanolone control.

[2] = Dog pharmacokinetic studies: plasma ALLO after oral ALLO or prodrug, and after IV ALLO; type: in vivo, male beagle dogs; details: beagle dogs; for Vd: beagle, iv
Procedure: For the dog studies, male beagle dogs (body weights between 9.1-11.7 kg) were held in a large-animal research facility prior to the commencement of studies. The dogs were fasted for 12 h up to 30 min prior to drug administration. At 30 minutes prior to drug dosing, each animal received ˜20 g of high fat food (Teklad, TD.07096), then each animal was offered 100 g of beef-flavored canned food. Food was removed immediately prior to dosing. Following the 4 hour sample collection, food was returned (any remaining canned food and 200 g of regular diet). Water was available ad libitum throughout the study for all dogs.
For oral administration, test compounds were prepared in a suitable formulation such as a long-chain lipid based self-emulsifying drug delivery system (SEDDS) consisting of 30.5% w/w soybean oil, 30.5% w/w Maisine-CC, 31.6% w/w Cremophor EL and 7.4% w/w ethanol. Formulations were filled into hard gelatin capsules. Each animal received 2 size 000 capsules that in total contained ALLO (at 1.5 mg/kg dose) or ALLO prodrug (at 5 mg/kg dose, equivalent to approx. 1.5 mg/kg parent ALLO) in 2 grams of SEDDS formulation. Compound dissolved in the formulation was administrated to the fed dog by placing the capsules as far posterior to the pharynx as possible, closing the mouth and rubbing the throat to stimulate swallowing. Subsequently 10 mL of water was administered orally via a syringe.
For the IV group, parent ALLO (0.5 mg/kg dose) was administered as an intravenous bolus (formulation contained ALLO at concentration of 1.5 mg/mL) by way of a percutaneous catheter placed in a peripheral vein, followed by a 2 mL flush with normal saline.
Blood samples (approx. 1.5 mL each) were taken via venepuncture of the cephalic vein 5 min prior to administration up to 48 hours post-dosing. During the blood sample collection period the animals had free access to water but remained fasted for a further 4 hours following drug administration.
Plasma was separated by centrifugation and aliquots of each plasma sample transferred into eppendorf tubes and stored at −80° C. prior to analysis.
Doses are normalized to a 1.5 mg/kg equivalent ALLO dose and data are presented as mean±SD (n=4). AUC was calculated using the trapezoidal method in PKsolver—non-compartment model. Statistical significance is defined as α<0.05 when using One-way ANOVA followed by Tukey's test (paired comparison).

[3] = Non-human primate pharmacokinetic studies: plasma ALLO after oral ALLO or prodrug, and after IV ALLO; type: in vivo, male cynomolgus monkeys; details: cynomolgus monkeys; for Vd: iv
Procedure: For the non-human primate studies, male cynomolgus monkeys were held in a large-animal research facility prior to the commencement of studies. The monkeys were fasted overnight up to 30 min prior to drug administration. Thirty minutes prior to drug administration, each monkey received 30 mL of Ensure Milkshake via oral gavage and was allowed access to a normal ration of primate chow. The primate chow was removed at the time of drug administration and was then returned 4 hours after drug administration. Water was available ad libitum throughout the study for all monkeys.
Test compounds were prepared in a long-chain lipid-based self-emulsifying drug delivery system (SEDDS) consisting of 30.5% w/w soybean oil, 30.5% w/w Maisine-CC, 31.6% w/w Cremophor EL, and 7.4% w/w ethanol. Parent ALLO (i.e., non-prodrug allopregnanolone) was prepared in a formulation of 20% aqueous hydroxypropyl-p-cyclodextrin. Formulations were filled into hard gelatin capsules. Test compounds were dosed at 5 mg/kg, and parent ALLO was dosed at 1.5 mg/kg. Drug was administered in a single capsule followed by 10 mL of water by oral gavage. For the IV group, parent ALLO (0.5 mg/kg dose) was administered as an intravenous bolus (formulation contained ALLO at a concentration of 1.5 mg/mL) by way of a percutaneous catheter placed in a peripheral vein followed by a 2 mL flush with normal saline prior to removal of the catheter.
After oral administration, blood samples (approx. 1 mL each) were taken via venipuncture of a peripheral vein 5 min prior to administration up to 48 hours post-dosing. Blood samples were transferred into tubes containing dipotassium EDTA anticoagulant, and the tubes were placed on crushed ice until processing. Within 30 minutes of collection, the blood samples were processed to isolate plasma by centrifuging at 2200×g for 10 minutes at 5° C.±3° C. The plasma samples were stored in polypropylene tubes at −80° C. prior to analysis.
Doses are normalized to a 1.5 mg/kg equivalent ALLO dose and data are presented as mean±SD (n=6). AUC was calculated using the trapezoidal method in PKsolver—non-compartment model. Statistical significance is defined as α<0.05 when using One-way ANOVA followed by Tukey's test (paired comparison).

With `CC(=O)[C@H]1CC[C@H]2[C@@H]3CC[C@H]4C[C@H](O)CC[C@]4(C)[C@H]3CC[C@]12C` [Allopregnanolone, 5α-pregnan-3α-ol-20-one] the AUC ([1]; male, Sprague-Dawley, plasma, 2 mg/kg, rat, IV, equivalent dose of allopregnanolone, n=1, read-out: AUC after intravenous administration) was about 1.45 µM·h, the Cmax ([1]; plasma Allo after oral gavage to rats, doses normalized to 2 mg/kg equivalent ALLO, mean±SD (n≥3) or mean±range (n=2)) was “below LOQ)” and the “plasma levels after oral administration” value ([1]; rat, oral parent allopregnanolone) was “below the limit of quantification”. For the same compound, the “Apparent BA” value ([2]; IV ALLO (reference)) was 100.0%, the Vd ([2]; male, dog, plasma, 0.5 mg/kg, IV ALLO, read-out: VSS (volume of distribution during the steady state phase)) was 14 ± 1.7 L/kg and the Vd ([2]; male, dog, plasma, 0.5 mg/kg, IV ALLO, read-out: VZ (volume of distribution during the elimination phase)) was 142 ± 29.5 L/kg. It also gave a clearance ([2]; male, dog, plasma, 0.5 mg/kg, IV ALLO, read-out: Cl (clearance)) of 160 ± 21.7 mL/min/kg, a Tmax ([2]; male, dog, plasma, 0.5 mg/kg, IV bolus ALLO) of 0 h and an AUC(0-inf) ([2]; male, dog, plasma, 0.5 mg/kg, IV bolus ALLO, normalized to 1.5 mg/kg) of 0.498 ± 0.0633 µM·h. The Cmax ([2]; male, dog, plasma, 0.5 mg/kg, IV bolus ALLO, normalized to 1.5 mg/kg, mean±SD (n=4), read-out: Cmax (extrapolated C0)) was 3.5 ± 0.572 µM, the half-life ([2]; male, dog, plasma, 0.5 mg/kg, IV bolus ALLO, read-out: T1/2 (elimination phase half-life) (converted)) was 10.3 ± 0.8 h and the “Apparent BA” value ([3]; IV ALLO (reference)) was 100%. The clearance ([3]; male, cynomolgus monkey, plasma, 0.5 mg/kg, IV ALLO, read-out: Cl (clearance)) was 42.2 ± 9 mL/min/kg, the Tmax ([3]; male, cynomolgus monkey, plasma, 0.5 mg/kg, IV bolus ALLO) was 4.8 min and the AUC(0-inf) ([3]; male, cynomolgus monkey, plasma, 0.5 mg/kg, IV bolus ALLO, normalized to 1.5 mg/kg) was 1.93 ± 0.373 µM·h. It also gave a Cmax ([3]; male, cynomolgus monkey, plasma, 0.5 mg/kg, IV bolus ALLO, normalized to 1.5 mg/kg, mean±SD (n=6)) of 4.45 ± 0.73 µM, a half-life ([3]; male, cynomolgus monkey, plasma, 0.5 mg/kg, IV bolus ALLO, read-out: T1/2 (terminal phase half-life) (converted)) of 7.4 ± 1.2 h and a Vd ([3]; male, cynomolgus monkey, plasma, 0.5 mg/kg, IV ALLO, read-out: VSS (volume of distribution during the steady state phase)) of 2.6 ± 0.9 L/kg. For the same compound, the Vd ([3]; male, cynomolgus monkey, plasma, 0.5 mg/kg, IV ALLO, read-out: VZ (volume of distribution during the elimination phase)) was 26.9 ± 6.8 L/kg.

From patent publication US20210300962A1, “LIPID PRODRUGS OF PREGNANE NEU[…] USES THEREOF” (PureTech LYT, Inc., priority 2018, published 2021)
